Experiments:
Type in all cases: toxicity, cell-based
[1] = system: Fibroblast; experiment: Incucyte cell viability with human fibroblast; settings: 10 µM, compound concentration 10 uM
[2] = system: U2OS; experiment: Incucyte cell viability with U2OS; settings: human, 10 µM, compound concentration 10 uM
[3] = system: HEK-293T; experiment: Incucyte cell viability with HEK293T; settings: human, 10 µM, compound concentration 10 uM
Further: unitless GR value; below 1 slowed growth and below 0 cell loss.

SMILES	Growth Rate ([1]; 6 h, replicate number 2)	Growth Rate ([1]; 12 h, replicate number 1)	Growth Rate ([1]; 12 h, replicate number 2)	Growth Rate ([1]; 18 h, replicate number 1)	Growth Rate ([1]; 18 h, replicate number 2)	Growth Rate ([1]; 24 h, replicate number 1)	Growth Rate ([2]; 0 h, replicate number 2)	Growth Rate ([2]; 6 h, replicate number 2)	Growth Rate ([2]; 24 h, replicate number 2)	Growth Rate ([3]; 0 h, replicate number 1)	Growth Rate ([3]; 6 h, replicate number 2)	Growth Rate ([3]; 12 h, replicate number 2)	Growth Rate ([3]; 18 h, replicate number 1)	Growth Rate ([3]; 18 h, replicate number 2)	Growth Rate ([3]; 24 h, replicate number 1)	Growth Rate ([3]; 24 h, replicate number 2)	Growth Rate ([2]; 18 h, replicate number 1)	Growth Rate ([2]; 24 h, replicate number 1)	Growth Rate ([2]; 0 h, replicate number 1)	Growth Rate ([3]; 0 h, replicate number 2)	other results
CC(C)(O)c1cn(-c2ccc(-c3cccc(S(C)(=O)=O)c3)cc2)c(C(C)(C)c2ccccc2Cl)n1 [BMS-779788]	0.64	0.66	0.55	0.36	0.78	0.75	0.31	0.61	0.7	-0.7	0.58	0.93	0.81	0.87	0.9	0.92					Growth Rate ([1]; 6 h, replicate number 1): -0.03; Growth Rate ([1]; 24 h, replicate number 2): 0.63; Growth Rate ([2]; 12 h, replicate number 2): 0.79; Growth Rate ([2]; 18 h, replicate number 2): 0.76; Growth Rate ([3]; 12 h, replicate number 1): 0.97
COc1ccc(S(=O)(=O)N2CCOCC2)cc1Nc1ccc2c(n1)N(C1CCN(C)CC1)[C@H](C)C(=O)N2C	-0.45	0.73	0.26	0.88	0.48	0.86	0.58		0.72				0.97		0.66	0.62	0.83	0.45			Growth Rate ([1]; 0 h, replicate number 2): 0.55; Growth Rate ([1]; 6 h, replicate number 1): 0.47; Growth Rate ([1]; 24 h, replicate number 2): 0.41; Growth Rate ([2]; 12 h, replicate number 2): 0.86; Growth Rate ([2]; 18 h, replicate number 2): 0.79
COc1cc2c(cc1CC=C(C)C)C(=O)C[C@@H](c1ccc(O)cc1)O2 [BAVACHININ A]	0.81					0.99		0.85	0.99	-0.07	0.97	0.94		0.89		0.92	0.89	0.73	-0.43	-0.67	Growth Rate ([1]; 0 h, replicate number 2): -0.08; Growth Rate ([2]; 12 h, replicate number 1): 0.89
CC(C=CC1=C(C)CCCC1(C)C)=CC=CC(C)=CC(=O)O	0.99		0.99				0.8	0.93	0.99	0.11	0.82	0.99	0.94	0.73	0.95	0.58	0.67	0.87	0.58	-0.77	Growth Rate ([1]; 0 h, replicate number 2): 0.82; Growth Rate ([2]; 6 h, replicate number 1): 0.77; Growth Rate ([2]; 12 h, replicate number 1): 0.3
Cc1onc(O)c1CC(N)C(=O)O [(R,S)-AMPA]	-0.99	-1	0.59				-0.98	0.78	0.94		0.09	0.69	0.78	0.64	0.74				-0.22	0.65	Growth Rate ([1]; 0 h, replicate number 1): -0.2; Growth Rate ([2]; 12 h, replicate number 2): 0.82; Growth Rate ([2]; 18 h, replicate number 2): 0.94; Growth Rate ([3]; 6 h, replicate number 1): 0.47; Growth Rate ([3]; 12 h, replicate number 1): 0.21
CN1Cc2nccc(-c3cn(C)nc3-c3ccc(F)cc3)c2C1=O.Cl							0.96			-0.38							0.99		0.53	0.69	Growth Rate ([1]; 0 h, replicate number 2): 0.28
CN(C)CCC[C@@]1(c2ccc(F)cc2)OCc2cc(C#N)ccc21 [ESCITALOPRAM]				0.69	0.85	0.84				-0.16		0.97	0.56	0.59	0.6			0.9	0.18	0.57	Growth Rate ([1]; 0 h, replicate number 1): -1; Growth Rate ([1]; 6 h, replicate number 1): 0.67; Growth Rate ([1]; 24 h, replicate number 2): 0.74; Growth Rate ([2]; 6 h, replicate number 1): 0.62; Growth Rate ([2]; 12 h, replicate number 1): 1; Growth Rate ([3]; 12 h, replicate number 1): 0.84
c1ccc2c(-c3coc4cc(-c5ccc(N6CCNCC6)cc5)cnc34)ccnc2c1		0.93	0.61	0.29	0.28	0.1	0.9	0	-0.46		-0.5	-0.56	-0.42	-0.43	-0.3	-0.33	0.14	-0.05		-1	Growth Rate ([1]; 0 h, replicate number 1): 0.87; Growth Rate ([1]; 24 h, replicate number 2): 0.11; Growth Rate ([2]; 12 h, replicate number 1): 0.59; Growth Rate ([2]; 12 h, replicate number 2): -0.36; Growth Rate ([2]; 18 h, replicate number 2): -0.38; Growth Rate ([3]; 6 h, replicate number 1): -0.57; Growth Rate ([3]; 12 h, replicate number 1): -0.52
